ChEMBL document CHEMBL5291721, “A preclinical secondary pharmacology resource illuminates target-adverse drug reaction associations of marketed drugs” (Nat Commun, 2023)

Legend:
[1] = target: T1, Bile acid receptor (Homo sapiens, UniProt Q96RI1); type: functional
T1 sequence (Q96RI1 whole entry): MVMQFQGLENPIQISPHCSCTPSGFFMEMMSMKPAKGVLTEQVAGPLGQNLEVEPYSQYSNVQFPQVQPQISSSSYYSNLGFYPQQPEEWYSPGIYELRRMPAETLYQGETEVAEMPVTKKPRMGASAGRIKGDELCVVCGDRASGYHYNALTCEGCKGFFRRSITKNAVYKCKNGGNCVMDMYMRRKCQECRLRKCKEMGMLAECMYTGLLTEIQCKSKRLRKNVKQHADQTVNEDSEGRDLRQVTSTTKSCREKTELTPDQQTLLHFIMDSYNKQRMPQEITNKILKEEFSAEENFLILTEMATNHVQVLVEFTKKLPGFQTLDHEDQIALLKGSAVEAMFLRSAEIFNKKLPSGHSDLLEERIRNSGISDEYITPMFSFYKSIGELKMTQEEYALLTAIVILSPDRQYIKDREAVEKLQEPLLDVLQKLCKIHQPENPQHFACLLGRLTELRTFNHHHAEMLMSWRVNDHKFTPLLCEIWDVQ

[2] = target: T2, Retinoic acid receptor gamma (Homo sapiens, UniProt P13631); type: functional, cell-based
T2 sequence (P13631 whole entry): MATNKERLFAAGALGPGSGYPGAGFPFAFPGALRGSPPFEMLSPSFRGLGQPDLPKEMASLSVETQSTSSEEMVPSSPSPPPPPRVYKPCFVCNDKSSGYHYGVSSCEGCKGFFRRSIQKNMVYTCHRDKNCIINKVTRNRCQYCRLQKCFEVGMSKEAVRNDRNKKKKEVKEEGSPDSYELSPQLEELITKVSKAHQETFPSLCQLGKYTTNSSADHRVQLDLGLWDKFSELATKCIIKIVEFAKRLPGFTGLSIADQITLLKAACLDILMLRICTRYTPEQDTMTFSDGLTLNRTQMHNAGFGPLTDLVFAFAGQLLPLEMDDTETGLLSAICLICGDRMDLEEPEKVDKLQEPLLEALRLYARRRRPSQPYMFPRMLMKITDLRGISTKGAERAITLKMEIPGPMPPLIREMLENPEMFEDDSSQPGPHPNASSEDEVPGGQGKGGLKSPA

[3] = target: T1, Bile acid receptor; type: functional; remark: listed apart in the source
[4] = target: T3, Type-2 angiotensin II receptor (Homo sapiens, UniProt P50052); type: functional
T3 sequence (P50052 whole entry): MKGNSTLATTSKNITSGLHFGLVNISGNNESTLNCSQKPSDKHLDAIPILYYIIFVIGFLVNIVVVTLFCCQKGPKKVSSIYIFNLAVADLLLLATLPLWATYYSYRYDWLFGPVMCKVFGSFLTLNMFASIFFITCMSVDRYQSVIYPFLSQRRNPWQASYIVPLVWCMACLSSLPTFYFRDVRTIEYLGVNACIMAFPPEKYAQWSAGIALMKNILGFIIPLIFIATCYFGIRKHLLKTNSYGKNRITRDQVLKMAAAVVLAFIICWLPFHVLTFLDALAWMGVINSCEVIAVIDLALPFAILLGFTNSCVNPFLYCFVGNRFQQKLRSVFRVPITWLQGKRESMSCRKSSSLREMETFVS

[5] = target: T4, Muscarinic acetylcholine receptor M1 (Homo sapiens, UniProt P11229); type: functional, cell-based
T4 sequence (P11229 whole entry): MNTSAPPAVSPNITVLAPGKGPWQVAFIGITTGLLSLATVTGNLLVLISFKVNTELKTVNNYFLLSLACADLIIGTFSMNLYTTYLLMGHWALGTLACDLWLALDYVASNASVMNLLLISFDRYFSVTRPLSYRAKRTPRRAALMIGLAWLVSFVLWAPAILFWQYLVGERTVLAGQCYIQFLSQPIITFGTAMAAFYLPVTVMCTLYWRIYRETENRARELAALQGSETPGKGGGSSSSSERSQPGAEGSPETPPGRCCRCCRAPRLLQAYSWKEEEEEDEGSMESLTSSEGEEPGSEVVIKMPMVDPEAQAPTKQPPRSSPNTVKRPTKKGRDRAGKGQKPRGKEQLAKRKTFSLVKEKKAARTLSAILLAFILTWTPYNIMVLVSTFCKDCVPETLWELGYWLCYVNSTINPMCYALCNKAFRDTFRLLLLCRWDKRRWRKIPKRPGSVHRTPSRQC

[6] = target: T5, Prostaglandin G/H synthase 1 (Rattus norvegicus, UniProt Q63921); type: functional
T5 sequence (Q63921 whole entry): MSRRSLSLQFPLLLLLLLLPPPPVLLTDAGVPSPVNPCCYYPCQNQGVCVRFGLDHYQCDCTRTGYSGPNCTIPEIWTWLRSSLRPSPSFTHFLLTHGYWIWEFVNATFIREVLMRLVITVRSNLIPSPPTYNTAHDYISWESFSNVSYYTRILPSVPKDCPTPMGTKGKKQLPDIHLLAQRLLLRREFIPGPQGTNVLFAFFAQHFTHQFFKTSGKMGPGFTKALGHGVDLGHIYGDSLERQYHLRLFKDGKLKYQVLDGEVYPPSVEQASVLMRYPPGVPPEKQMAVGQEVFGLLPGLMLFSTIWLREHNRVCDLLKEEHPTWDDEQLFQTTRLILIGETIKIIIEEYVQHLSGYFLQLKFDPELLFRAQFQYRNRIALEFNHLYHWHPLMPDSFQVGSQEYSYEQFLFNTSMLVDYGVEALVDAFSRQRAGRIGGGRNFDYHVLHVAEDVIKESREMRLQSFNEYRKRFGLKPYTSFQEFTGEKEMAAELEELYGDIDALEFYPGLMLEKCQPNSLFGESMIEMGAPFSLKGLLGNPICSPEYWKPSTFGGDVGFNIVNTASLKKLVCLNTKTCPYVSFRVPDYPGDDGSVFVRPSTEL

[7] = target: T4, Muscarinic acetylcholine receptor M1; type: functional, cell-based; remark: listed apart in the source
[8] = target: T4, Muscarinic acetylcholine receptor M1
[9] = target: T6, Histamine H1 receptor (Homo sapiens, UniProt P35367); type: functional, cell-based
T6 sequence (P35367 whole entry): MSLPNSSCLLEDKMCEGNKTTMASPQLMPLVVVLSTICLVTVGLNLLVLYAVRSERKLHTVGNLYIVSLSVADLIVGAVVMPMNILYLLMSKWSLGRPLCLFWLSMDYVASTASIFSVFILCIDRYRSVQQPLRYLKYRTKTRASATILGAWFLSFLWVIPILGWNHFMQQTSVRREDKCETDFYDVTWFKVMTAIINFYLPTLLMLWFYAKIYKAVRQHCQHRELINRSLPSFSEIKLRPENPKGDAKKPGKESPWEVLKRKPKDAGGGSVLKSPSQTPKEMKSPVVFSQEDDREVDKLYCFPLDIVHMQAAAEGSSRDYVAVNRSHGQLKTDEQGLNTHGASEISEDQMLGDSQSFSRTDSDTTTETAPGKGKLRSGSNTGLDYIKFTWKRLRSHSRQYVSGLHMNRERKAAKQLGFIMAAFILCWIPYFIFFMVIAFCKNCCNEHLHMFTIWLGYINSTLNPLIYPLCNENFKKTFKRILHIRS

[10] = target: T6, Histamine H1 receptor; type: functional, cell-based; remark: listed apart in the source
[11] = target: 5-hydroxytryptamine receptor 2B (Homo sapiens, UniProt P41595)
Sequence of 5-hydroxytryptamine receptor 2B (P41595 whole entry): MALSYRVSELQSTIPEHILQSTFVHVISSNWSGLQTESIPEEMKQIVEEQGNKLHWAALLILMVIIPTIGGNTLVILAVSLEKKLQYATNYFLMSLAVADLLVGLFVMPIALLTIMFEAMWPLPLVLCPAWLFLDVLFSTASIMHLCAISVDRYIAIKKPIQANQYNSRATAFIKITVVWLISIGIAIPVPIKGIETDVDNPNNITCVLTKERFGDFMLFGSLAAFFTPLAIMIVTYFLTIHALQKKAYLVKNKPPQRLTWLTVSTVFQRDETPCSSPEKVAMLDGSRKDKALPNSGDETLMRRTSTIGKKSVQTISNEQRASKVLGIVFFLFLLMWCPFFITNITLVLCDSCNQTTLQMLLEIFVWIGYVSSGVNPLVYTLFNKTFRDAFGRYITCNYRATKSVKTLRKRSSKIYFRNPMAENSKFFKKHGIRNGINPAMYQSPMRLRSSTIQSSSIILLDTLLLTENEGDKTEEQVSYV
Also: assay procedure not described here.

`CN1C(C(=O)Nc2ccccn2)=C(O)c2sc(Cl)cc2S1(=O)=O` [LORNOXICAM] showed an AC50 [1] of over 30 µM, an AC50 [2] of over 30 µM and an AC50 [3] of over 30 µM.
`C1CCC(C(CC2CCCCN2)C2CCCCC2)CC1` (centres undefined) [PERHEXILINE] gave an AC50 [4] of over 100 µM.
In the case of `O=C(O[C@H]1C[C@H]2CC[C@@H](C1)[N+]21CCCC1)C(O)(c1ccccc1)c1ccccc1` [TROSPIUM], the AC50 [5] was over 30 µM, the AC50 [6] was over 30 µM and the AC50 [7] was 0.0027 µM.
For `CCc1oc2ccccc2c1C(=O)c1cc(I)c(O)c(I)c1` [BENZIODARONE], the AC50 [8] was over 30 µM.
`Nc1nc(NC2CC2)c2ncn([C@H]3C=C[C@@H](CO)C3)c2n1` [ABACAVIR] showed an AC50 [9] of over 30 µM and an AC50 [10] of over 30 µM.
With `CCCN1C[C@H](CSC)C[C@@H]2c3cccc4[nH]cc(c34)C[C@H]21` [PERGOLIDE] the AC50 [11] was 0.0084 µM.
Work on `Cc1c(C(=O)NN2CCCCC2)nn(-c2ccc(Cl)cc2Cl)c1-c1ccc(Cl)cc1` [RIMONABANT] yielded an AC50 [1] of over 30 µM, an AC50 [2] of over 30 µM and an AC50 [3] of over 30 µM.
